Data reported in patent US20100152188A1, “Novel Heterocyclic Compounds” (priority 2005, published 2010).
Where two headings read alike, the source gives them in different places.

How the values were obtained:
NCIH460 = assay: Anti-cancer screen (MTT), NCIH460; assay type: cell-based; details: Homo sapiens, NCI-H460, 48 hours with compound, tested at 0.01-100 µM
Description: (§1) Experimental drugs are screened for anti-cancer activity in three cell lines for their GI50, TGI and LC50 values (using five concentrations for each compound). The cell lines are maintained in DMEM containing 10% fetal bovine serum. 96 well micro titer plates are inoculated with cells in 100 µL for 24 hours at 37° C., 5% CO2, 95% air and 100% relative humidity. 5000 HCT 116 cells/well, 5000 NCIH 460 cells/well and 5000 U251 cells/well are plated. A separate plate with these cell lines is also inoculated to determine cell viability before the addition of the compounds (T0).
(§2) Following 24-hour incubation, experimental drugs are added to the 96 well plates. Each plate contains one of the above cell lines and the following in triplicate: five different concentrations (0.01, 0.1, 1, 10 and 100 µM) of four different compounds, appropriate dilutions of a cytotoxic standard and control (untreated) wells. Compounds are dissolved in DMSO to make 20 mM stock solutions on the day of drug addition and frozen at −20° C. Serial dilutions of these 20 mM stock solutions are made in complete growth medium such that 100 µL of these drug solutions in medium, of final concentrations equaling 0.01, 0.1, 1, 10 and 100 µM can be added to the cells in triplicate. Standard drugs whose anti-cancer activity has been well documented and which are regularly used are doxorubicin and SAHA.
(§3) For T0 measurement, 24 hours after seeding the cells, 10 µL of 3-(4,5-Dimethyl-2-thiazolyl)-2,5-diphenyl-2H-tetrazolium (MTT) solution per well is added and incubation carried out for 3 hours at 37° C., 5% CO2, 95% air and 100% relative humidity, protected from light. Cells incubated with compounds for 48 hours are treated similarly except with the addition of 20 µl MTT solution per well and a subsequent incubation under the same conditions. After 3 hours of MTT incubation, well contents are aspirated carefully followed by addition of 150 µL DMSO per well. Plates are agitated to ensure solution of the formazan crystals in DMSO and absorbance read at 570 nm.
(§4) Percent growth is calculated for each compound's concentration relative to the control and zero measurement wells (T0; viability right before compound addition). If a test well's O.D. value is greater than the T0 measurement for that cell line
(§5) %Growth=(test−zero)/(control−zero)×100
(§6) If a test well's O.D. value is lower than the T0 measurement for that cell line, then,
(§7) %Growth=(test−zero)/zero×100

HCT116 = assay: Anti-cancer screen (MTT), HCT116; assay type: cell-based; details: Homo sapiens, HCT-116, 48 hours with compound, tested at 0.01-100 µM; for CC50: read-out: HCT116 LC50
Description: as §1, §2, §3, §4, §5, §6, §7

MDAMB-231/U 251 = assay: Anti-cancer screen (MTT), MDAMB-231/U 251; assay type: cell-based; details: for CC50: read-out: MDAMB-231/U 251 LC50
Description: as §1, §2, §3, §4, §5, §6, §7

[1] = test system: NCIH460, HCT116, MDAMB-231/U 251; assay: Anti-cancer screen, mean GI50 over the cell lines; assay type: cell-based; details: in µM
Description: as §1, §2, §3, §4

HDAC = HDAC inhibition; assay type: biochemical; details: for HDAC Inhibition 1 μM: compound at 1 μM; for HDAC Inhibition 10 μM: compound at 10 μM
[2] = 48 hours with compound, MTT, tested at 0.01-100 µM

Structure (SMILES) | GI50 (NCIH460) [µM] | IC (TGI) (NCIH460) [µM] | LC50 (NCIH460) [µM] | GI50 (HCT116) [µM] | IC (TGI) (HCT116) [µM] | LC50 (concentration giving 50% net cell kill relative to T0) (HCT116) [µM] | CC50 (MDAMB-231/U 251; 48 h) [µM] | GI50 (MDAMB-231/U 251; [2]) [µM] | IC (TGI) (MDAMB-231/U 251; [2]) [µM] | Mean GI50 [1] | HDAC Inhibition 1 μM (HDAC) | HDAC Inhibition 10 μM (HDAC) | CC50 (HCT116) [µM] | CC50 (MDAMB-231/U 251; [2]) [µM]
O=C(Cc1csc(NC(=O)OCc2ccsc2)n1)NO [Example 3, 3-Thienylmethyl{4-[2-(hydroxyamino)-2-oxoethyl]-1,3-thiazol-2-yl}carbamate] | 30 | > 100 | > 100 | > 100 | > 100 | > 100 | > 100 | 32 | > 100 | 31 | −4.03 | 22.89 | – | –
O=C(Cc1csc(NC(=O)OCc2ccncc2)n1)NO [Example 4, Pyridin-4-ylmethyl{4-[2-(hydroxyamino)-2-oxoethyl]-1,3-thiazol-2-4.yl}carbamate] | 20 | > 100 | > 100 | > 100 | > 100 | > 100 | > 100 | 6 | > 100 | 13 | 5.6 | 38.13 | – | –
O=C(Cc1csc(NC(=O)OCC2COc3ccccc3O2)n1)NO (stereo not drawn) [Example 5, 2,3-Dihydro-1,4-benzodioxin-2-ylmethyl{4-[2-(hydroxyamino)-2-oxoethyl]1,3-thiazol-2-yl}carbamate] | 18 | 76 | > 100 | 40 | 80 | > 100 | > 100 | 6 | 78 | 21.3 | 0.65 | 29.29 | – | –
O=C(Cc1csc(NC(=O)OCc2ccc(Br)s2)n1)NO [Example 6, (5-Bromo-2-thienyl)methyl{4-[2-(hydroxyamino)-2-oxoethyl]-1,3-thiazol-2-yl}carbamate] | 2 | 80 | > 100 | 65 | > 100 | – | – | 5 | 82 | 24 | 8.8 | 47.27 | > 100 | > 100
O=C(Cc1csc(NC(=O)OCc2cc(Br)cs2)n1)NO [Example 7, (4-Bromo-2-thienyl)methyl{4-[2-(hydroxyamino)-2-oxoethyl]-1,3-thiazol-2-yl}carbamate] | 10 | 70 | > 100 | 25 | 80 | – | – | 15 | 74 | 16.7 | 7.07 | 46.41 | > 100 | > 100
Cc1ncsc1COC(=O)Nc1nc(CC(=O)NO)cs1 [Example 8, (4-Methyl-1,3-thiazol-5-yl)methyl{4-[2-(hydroxyamino)-2-oxoethyl]-1,3-thiazol-2-yl}carbamate] | > 100 | > 100 | > 100 | > 100 | > 100 | – | – | 0.5 | > 100 | >100 | 0.96 | 17.80 | > 100 | > 100
O=C(Cc1csc(NC(=O)OCc2nc3ccccc3s2)n1)NO [Example 9, 1,3-Benzothiazol-2-ylmethyl{4-[2-(hydroxyamino)-2-oxoethyl]-1,3-thiazol-2-yl}carbamate] | 73 | > 100 | > 100 | 48 | > 100 | > 100 | > 100 | 38 | > 100 | 53 | 17.52 | 46.21 | – | –
O=C(Nc1nc(CC(=O)N2CCOCC2)cs1)OCc1cccnc1 [Example 10, pyridin-3-ylmethyl[4-(2-morpholin-4-yl-2-oxoethyl)-1,3-thiazol-2-yl]carbamate] | 55 | > 100 | > 100 | > 100 | > 100 | > 100 | > 100 | 0.4 | 27 | 26.7 | −9.85 | 0.14 | – | –
O=C(Nc1nc(CC(=O)N2CCCCC2)cs1)OCc1cccnc1 [Example 12, Pyridin-3-ylmethyl[4-(2-oxo-2-piperidin-1-ylethyl)-1,3-thiazol-2-yl]carbamate] | 50 | 100 | > 100 | > 100 | > 100 | > 100 | > 100 | 50 | > 100 | 50 | – | 10.83 | – | –
O=C(Cc1csc(NC(=O)OCc2cccnc2)n1)NC1CCN(Cc2ccccc2)CC1 [Example 17, Pyridin-3-ylmethyl(4-{2-[(1-benzylpiperidin-4-yl)amino]-2-oxoethyl}-1,3-thiazol-2-yl)carbamate] | 80 | > 100 | > 100 | 82 | > 100 | > 100 | > 100 | 2.5 | 50 | 54.8 | – | 3.61 | – | –
Nc1ccccc1NC(=O)Cc1csc(NC(=O)OCc2cccnc2)n1 [Example 18, Pyridin-3-ylmethyl(4-{2-[(2-aminophenyl)amino]-2-oxoethyl}-1,3-thiazol-2-yl)carbamate] | 100 | > 100 | > 100 | > 100 | > 100 | > 100 | > 100 | 12 | > 100 | >100 | 2.19 | 7.99 | – | –
O=C(Cc1csc(NC(=O)OCc2cccnc2)n1)Nc1ccccc1O [Example 19, Pyridin-3-ylmethyl(4-{2-[(2-hydroxyphenyl)amino]-2-oxoethyl}-1,3-thiazol-2-yl)carbamate] | 1 | 60 | > 100 | 34 | > 100 | > 100 | > 100 | 7.6 | 80 | 14.2 | – | 0.50 | – | –
Nc1ccccc1NC(=O)Cc1csc(NC(=O)OCc2nc3ccccc3s2)n1 [Example 21, 1,3-Benzothiazol-2-ylmethyl(4-{2-[(2-aminophenyl)amino]-2-oxoethyl}-1,3-thiazol-2-yl)carbamate] | 15 | > 100 | > 100 | 8 | > 100 | > 100 | > 100 | 4 | 9 | 9 | 4.41 | 0.57 | – | –
Nc1ccccc1NC(=O)Cc1csc(NC(=O)OCc2nccs2)n1 [Example 23, 1,3-Thiazol-2-ylmethyl(4-{2-[(2-aminophenyl)amino]-2-oxoethyl}-1,3-thiazol-2-yl)carbamate] | > 100 | > 100 | > 100 | > 100 | > 100 | > 100 | > 100 | 31 | > 100 | >100 | 11.34 | 5.18 | – | –
